Results on 16 compounds are retold here after patent publication US9598387B2 (Southern Research Institute, priority 2012, dated 2017).

For assay [1], the target named is human D3 dopamine receptor (Homo sapiens (Human), UniProt P35462). As to the kind of experiment: Radioligand binding (125I-IABN competition), D3. The following applies: for Ki: 125I-IABN competition, HEK cell membranes expressing human D3; for D2/D3 (D3 selectivity ratio, D2 Ki/D3 Ki): calculated D2 Ki/D3 Ki. The protocol: (§1) The affinities of the target compounds were determined using radioligand binding experiments. […] Competition curves were modeled for a single site. Data from competition dose-response curves were analyzed using Tablecurve program (Jandel). IC50 values were converted to equilibrium dissociation constants (Ki values) using the Cheng and Prusoff correction.
human D3 dopamine receptor, sequence (P35462 whole entry): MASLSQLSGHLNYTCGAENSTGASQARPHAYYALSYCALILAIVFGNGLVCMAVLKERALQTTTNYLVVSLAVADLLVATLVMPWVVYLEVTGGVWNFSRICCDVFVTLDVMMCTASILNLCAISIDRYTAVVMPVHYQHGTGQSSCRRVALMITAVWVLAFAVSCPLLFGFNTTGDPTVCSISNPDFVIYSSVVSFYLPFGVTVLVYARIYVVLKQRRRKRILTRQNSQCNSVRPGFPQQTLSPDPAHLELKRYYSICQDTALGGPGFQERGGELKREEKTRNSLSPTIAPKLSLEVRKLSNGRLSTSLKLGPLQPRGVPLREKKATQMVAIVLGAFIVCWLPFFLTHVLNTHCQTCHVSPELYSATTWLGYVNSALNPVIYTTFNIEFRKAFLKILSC

Assay [2] deals with human D2-long dopamine receptor (Homo sapiens (Human), UniProt P14416). The assay can be described thus: Radioligand binding (125I-IABN competition), D2. The following applies: HEK cell membranes expressing human D2-long. The protocol: as §1
human D2-long dopamine receptor, sequence (P14416 whole entry): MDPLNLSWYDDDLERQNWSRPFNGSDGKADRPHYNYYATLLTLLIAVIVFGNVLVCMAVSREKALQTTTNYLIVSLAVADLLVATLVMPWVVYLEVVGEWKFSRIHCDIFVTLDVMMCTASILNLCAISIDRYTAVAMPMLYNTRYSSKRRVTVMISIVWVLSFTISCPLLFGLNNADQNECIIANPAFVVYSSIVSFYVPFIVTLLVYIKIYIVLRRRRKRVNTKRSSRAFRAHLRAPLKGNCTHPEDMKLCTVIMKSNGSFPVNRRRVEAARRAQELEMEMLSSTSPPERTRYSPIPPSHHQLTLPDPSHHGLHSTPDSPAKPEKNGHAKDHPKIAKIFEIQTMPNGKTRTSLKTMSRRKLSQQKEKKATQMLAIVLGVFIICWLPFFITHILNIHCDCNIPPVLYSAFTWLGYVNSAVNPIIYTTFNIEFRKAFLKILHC

Each structure is given as a SMILES string.

A word on the Ki: it is the dissociation constant of the complex between target and ligand, obtained from inhibition or displacement. A higher Ki goes with weaker binding. With `Cc1nc(N2CCN(CCCCNC(=O)N3CCc4[nH]c5ccc(C(F)(F)F)cc5c4C3)CC2)cc(C(C)(C)C)n1` [Compound 98, N-(4-(4-(6-(tert-Butyl)-2-methylpyrimidin-4-yl)piperazin-1-yl)butyl)-8-(trifluoromethyl)-3,4-dihydro-1H-pyrido[4,3-b]indole-2(5H)-carboxamide], in assay [1], the affinity corresponds to a Ki of 1020 ± 201 nM and the “D2/D3 (D3 selectivity ratio, D2 Ki/D3 Ki)” value is 6. This compound returned an inhibitory constant (Ki) in assay [2] of 6400 ± 1100 nM.
For the compound `CC(C)(C)c1nc(N2CCN(CCCCNC(=O)N3CCc4ccccc4C3)CC2)cc(C(F)(F)F)n1` [Compound 41, N-(4-(4-(2-(tert-Butyl)-6-(trifluoromethyl)pyrimidin-4-yl)piperazin-1-yl)butyl)-3,4-dihydroisoquinoline-2(1H)-carboxamide], the Ki was determined as 22.9 ± 5 nM in assay [1] and 490 ± 70 nM in assay [2]. The “D2/D3 (D3 selectivity ratio, D2 Ki/D3 Ki)” value in assay [1] is on record as 21.
On the same counts, the results for `CC(C)(C)c1nc(N2CCN(CCCCNC(=O)N3CCN(C(=O)c4ccccc4)CC3)CC2)cc(C(F)(F)F)n1` [Compound 37, 4-Benzoyl-N-(4-(4-(2-(tert-butyl)-6-(trifluoromethyl)pyrimidin-4-yl)piperazin-1-yl)butyl)piperazine-1-carboxamide] are 29 ± 2.4 nM, 998 ± 252 nM and 34.
With `COc1ccc(N2CCN(C(=O)NCCCCN3CCN(c4cc(C(F)(F)F)nc(C(C)(C)C)n4)CC3)CC2)cc1` [Compound 21, N-(4-(4-(2-(tert-Butyl)-6-(trifluoromethyl)pyrimidin-4-yl)piperazin-1-yl)butyl)-4-(4-methoxyphenyl)piperazine-1-carboxamide], the results for the Ki in assay [1] and in assay [2] were 11.6 ± 0.9 nM and 557 ± 79.5 nM, respectively. Moreover, the “D2/D3 (D3 selectivity ratio, D2 Ki/D3 Ki)” value in assay [1] is 48.
Taken in the same sequence, the figures for `CC(C)(C)c1nc(N2CCN(CCCCNC(=O)N3CCN(c4cc(C#N)cc(C(F)(F)F)c4)CC3)CC2)cc(C(F)(F)F)n1` [Compound 61, N-(4-(4-(2-(tert-Butyl)-6-(trifluoromethyl)pyrimidin-4-yl)piperazin-1-yl)butyl)-4-(3-cyano-5-(trifluoromethyl)phenyl)piperazine-1-carboxamide] were 48 ± 10.8 nM, 896 ± 193 nM and 19.
For the compound `CC(C)(C)c1nc(N2CCN(CCCCNC(=O)N3CCN(c4cccc(Cl)c4Cl)CC3)CC2)cc(C(F)(F)F)n1` [Compound 18, N-(4-(4-(2-(tert-Butyl)-6-(trifluoromethyl)pyrimidin-4-yl)piperazin-1-yl)butyl)-4-(2,3-dichlorophenyl)piperazine-1-carboxamide], in assay [1], the inhibition constant (Ki) stood at 24.6 ± 4.9 nM and the “D2/D3 (D3 selectivity ratio, D2 Ki/D3 Ki)” value is on record as 31. This compound had an inhibition constant (Ki) in assay [2] of 759 ± 97 nM.
On the same counts, the results for `Cc1cccc(N2CCN(C(=O)NCCCCN3CCN(c4cc(C(F)(F)F)nc(C(C)(C)C)n4)CC3)CC2)c1C` [Compound 24, N-(4-(4-(2-(tert-Butyl)-6-(trifluoromethyl)pyrimidin-4-yl)piperazin-1-yl)butyl)-4-(2,3-dimethylphenyl)piperazine-1-carboxamide] are 29.9 ± 5.6 nM, 39 and 1180 ± 265 nM.
Taken in the same sequence, the figures for `CC(C)(C)c1nc(N2CCN(CCCCNC(=O)N3CCN(c4cccc(C(F)(F)F)c4)CC3)CC2)cc(C(F)(F)F)n1` [Compound 27, N-(4-(4-(2-(tert-Butyl)-6-(trifluoromethyl)pyrimidin-4-yl)piperazin-1-yl)butyl)-4-(3-(trifluoromethyl)phenyl)piperazine-1-carboxamide] were 29.6 ± 3.2 nM, 35 and 1050 ± 95.7 nM.
Taken in the same sequence, the figures for `CC(C)(C)c1nc(N2CCN(CCCCNC(=O)N3CCC(Oc4ccccc4)CC3)CC2)cc(C(F)(F)F)n1` [Compound 51, N-(4-(4-(2-(tert-Butyl)-6-(trifluoromethyl)pyrimidin-4-yl)piperazin-1-yl)butyl)-4-phenoxypiperidine-1-carboxamide] were 44.1 ± 8.1 nM, 29 and 1290 ± 248 nM.
Consider `CC(C)(C)c1nc(N2CCN(CCCCNC(=O)N3CCC(n4c(=O)[nH]c5ccccc54)CC3)CC2)cc(C(F)(F)F)n1` [Compound 53, N-(4-(4-(2-(tert-Butyl)-6-(trifluoromethyl)pyrimidin-4-yl)piperazin-1-yl)butyl)-4-(2-oxo-2,3-dihydro-1H-benzo[d]imidazol-1-yl)piperidine-1-carboxamide], for which the results for the Ki in assay [1] and in assay [2] were 35.2 ± 8.2 nM and 713 ± 78.3 nM, respectively. Moreover, the “D2/D3 (D3 selectivity ratio, D2 Ki/D3 Ki)” value in assay [1] was 20.
Consider `Cc1ccccc1N1CCN(C(=O)NCCCCN2CCN(c3cc(C(F)(F)F)nc(C(C)(C)C)n3)CC2)CC1` [Compound 58, N-(4-(4-(2-(tert-Butyl)-6-(trifluoromethyl)pyrimidin-4-yl)piperazin-1-yl)butyl)-4-(o-tolyl)piperazine-1-carboxamide], for which, in assay [1], the affinity, expressed as Ki, was 70.6 ± 14.8 nM and the “D2/D3 (D3 selectivity ratio, D2 Ki/D3 Ki)” value is listed as 11. In addition, the Ki in assay [2] was found to be 789 ± 192 nM.
Regarding `CC(C)(C)c1nc(C2CC2)cc(N2CCN(CCCCNC(=O)N3CCN(c4ccccc4)CC3)CC2)n1` [Compound 9, N-(4-(4-(2-(tert-Butyl)-6-cyclopropylpyrimidin-4-yl)piperazin-1-yl)butyl)-4-phenylpiperazine-1-carboxamide], in assay [1], the Ki turned out to be 15.1 ± 2.8 nM and the “D2/D3 (D3 selectivity ratio, D2 Ki/D3 Ki)” value is 34. For the same compound, in assay [2], the affinity corresponds to a Ki of 515 ± 59.6 nM.
For the compound `CC(C)(C)c1nc(N2CCN(CCCCNC(=O)c3cn4c(CO)cccc4n3)CC2)cc(C(F)(F)F)n1` [Compound 119, N-(4-(4-(2-(tert-Butyl)-6-(trifluoromethyl)pyrimidin-4-yl)piperazin-1-yl)butyl)-5-(hydroxymethyl)imidazo[1,2-a]pyridine-2-carboxamide], the figures for the Ki in assay [1] and in assay [2] were 45.4 ± 11.3 nM and 934 ± 222 nM, respectively.
For `COc1ccccc1N1CCN(C(=O)NCCCCN2CCN(c3cc(C(F)(F)F)nc(C(C)(C)C)n3)CC2)CC1` [Compound 19, N-(4-(4-(2-(tert-Butyl)-6-(trifluoromethyl)pyrimidin-4-yl)piperazin-1-yl)butyl)-4-(2-methoxyphenyl)piperazine-1-carboxamide], in assay [1], the Ki was 25.2 ± 5.5 nM and the “D2/D3 (D3 selectivity ratio, D2 Ki/D3 Ki)” value is 34. This compound also yielded a Ki in assay [2] of 861 ± 137 nM.
As to `O=C(NCCCCN1CCN(c2ccnc3cc(Cl)ccc23)CC1)N1CCN(c2ccccc2)CC1` [Compound 12, N-(4-(4-(7-Chloroquinolin-4-yl)piperazin-1-yl)butyl)-4-phenylpiperazine-1-carboxamide], in assay [1], affinity was put at a Ki of 26.9 ± 4.9 nM and the “D2/D3 (D3 selectivity ratio, D2 Ki/D3 Ki)” value was 35. Moreover, the inhibition constant Ki in assay [2] was determined as 933 ± 91 nM.
In the case of `Cc1nnc2n1CCN(C(=O)NCCCCN1CCN(c3cc(C(F)(F)F)nc(C(C)(C)C)n3)CC1)C2` [Compound 87, N-(4-(4-(2-(tert-Butyl)-6-(trifluoromethyl)pyrimidin-4-yl)piperazin-1-yl)butyl)-3-methyl-5,6-dihydro-[1,2,4]triazolo[4,3-a]pyrazine-7(8H)-carboxamide], in assay [1], the inhibition constant (Ki) came to 28.3 ± 5.3 nM and the “D2/D3 (D3 selectivity ratio, D2 Ki/D3 Ki)” value is listed as 14. This compound showed a Ki in assay [2] of 382 ± 91 nM.
